This is an account of results in patent US9617267B2, “Compounds and methods for kinase modulation, and indications therefor” (Plexxikon Inc., priority 2009, dated 2017).

The target of one data set is CYP1A2 (Homo sapiens (Human), UniProt P05177). The experiment in a line: CYP enzyme inhibition, fluorescent substrate (CEC). The method in brief:
(§1)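 Ten-point 1:1 compound dilutions in NADPH-regenerating cofactor mix, pre-incubated 10 min at 37 °C before enzyme/substrate addition: CYP1A2 0.5 pmol with 5 μM CEC, 15 min, 409 ex/460 em; CYP2D6 1.5 pmol with 1.5 μM AMMC, 30 min, 409 ex/530 em. IC50 from fluorescent product vs concentration.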

The next data set deals with CYP3A4(BFC) (Homo sapiens (Human), UniProt P08684). The experiment in a line: CYP enzyme inhibition, fluorescent substrate BFC. The note with it: read-out: Cyp IC50 3A4(BFC); CYP3A4, substrate BFC. The method in brief:
(§2)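 Human CYP activity was followed by the fluorescence of the metabolized product of a known substrate, which falls as metabolism is inhibited. Compounds from 100 mM DMSO stocks were serially diluted 1:1 over 10 points in co-factor mix and preincubated 10 min at 37 °C. IC50 was fitted from signal versus concentration.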

The target in a further data set is CYP2C19 (Homo sapiens (Human), UniProt P33261). The experiment in a line: CYP enzyme inhibition, fluorescent substrate (CEC). The note with it: read-out: Cyp IC50 2C19; CYP2C19, substrate CEC. The method in brief: as §2
A short description of data set [1]: Relative solubility by turbidity threshold concentration in aqueous buffers (pH 1.5, 4.5, 6.8, 7.4). The class given is physicochemical. The note with it: for turbidity threshold (L, M, H) 1.4: pH 1.4 [sic] (method: SGF pH 1.5); for turbidity threshold (L, M, H) 4.5: pH 4.5 (SIF); for turbidity threshold (L, M, H) 6.8: pH 6.8 (SIF); for turbidity threshold (L, M, H) 7.4: pH 7.4 (HEPES). The method, boiled down:
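Solubility class (high >250 μM, moderate 31.3–250 μM, low <31.3 μM) comes from the concentration where absorbance reaches a 0.01 threshold, averaged across 490/535/650 nm. Samples were compound dilutions from DMSO stock, 1 μL into 99 μL buffer at pH 1.5, 4.5, 6.8 or 7.4.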

Another data set deals with CYP2C9 (Homo sapiens (Human), UniProt P11712). Kind of data set: CYP enzyme inhibition, fluorescent substrate (MFC). The note with it: read-out: Cyp IC50 2C9; CYP2C9, substrate MFC. The method, boiled down:
as §2

The next data set concerns the target CYP3A4(BQ) (Homo sapiens (Human), UniProt P08684). The experiment in a line: CYP enzyme inhibition, fluorescent substrate BQ. The note with it: read-out: Cyp IC50 3A4(BQ); CYP3A4, substrate BQ. On the procedure: CYP (Cytochrome P450) enzymes are the major drug metabolizing enzymes present in the liver. The inhibition of CYP enzyme activity (IC50) for each of CYP1A2, CYP2C19, CYP2C9, CYP2D6, CYP3A4(BFC) and CYP3A4(BQ) is determined for compounds, where inhibition of metabolism of a known substrate leads to a decrease in the fluorescence of the metabolized product. The fluorescence of the product is monitored as a function of compound concentration.
Compounds are dissolved in dimethyl sulfoxide to a concentration of 100 mM. These are diluted 1 μL into 82 μL of acetonitrile. […] These are then serially diluted 1:1 (160 μL to 160 μL co-factor mix) for a total of 10 points. A 10 μL aliquot of this final mixture is dispensed into 384 well assay plates and incubated for 10 minutes at 37° C. […] Assay plates are incubated at 37° C. […] The signal versus compound concentration is used to determine the IC50. The enzymes and substrates for this assay are obtained from BD Biosciences.

In another data set the target is CYP2D6 (Homo sapiens (Human), UniProt P10635). The experiment in a line: CYP enzyme inhibition, fluorescent substrate (AMMC). The note with it: read-out: Cyp IC50 2D6. The class given is in vitro ADME. The method, boiled down:
as §1

Setting [2] is: read-out: Cyp IC50 1A2, CYP1A2, substrate CEC.

Read-outs that look alike come from different tables or passages of the source.

CYP2D6, sequence (P10635 whole entry): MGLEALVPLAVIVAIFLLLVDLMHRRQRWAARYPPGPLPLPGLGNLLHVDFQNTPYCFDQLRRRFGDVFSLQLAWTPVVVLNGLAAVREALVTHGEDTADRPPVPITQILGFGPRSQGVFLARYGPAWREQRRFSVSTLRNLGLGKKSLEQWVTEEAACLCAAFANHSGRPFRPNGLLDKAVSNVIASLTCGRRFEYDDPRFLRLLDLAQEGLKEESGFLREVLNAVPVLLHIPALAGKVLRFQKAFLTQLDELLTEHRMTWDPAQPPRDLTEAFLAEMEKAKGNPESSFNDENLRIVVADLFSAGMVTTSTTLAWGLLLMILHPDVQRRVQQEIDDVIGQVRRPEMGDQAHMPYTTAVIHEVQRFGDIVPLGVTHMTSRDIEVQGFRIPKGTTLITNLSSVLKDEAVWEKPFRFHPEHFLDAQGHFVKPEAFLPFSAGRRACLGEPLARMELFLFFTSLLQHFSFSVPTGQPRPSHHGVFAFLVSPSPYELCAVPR
CYP2C19, sequence (P33261 whole entry): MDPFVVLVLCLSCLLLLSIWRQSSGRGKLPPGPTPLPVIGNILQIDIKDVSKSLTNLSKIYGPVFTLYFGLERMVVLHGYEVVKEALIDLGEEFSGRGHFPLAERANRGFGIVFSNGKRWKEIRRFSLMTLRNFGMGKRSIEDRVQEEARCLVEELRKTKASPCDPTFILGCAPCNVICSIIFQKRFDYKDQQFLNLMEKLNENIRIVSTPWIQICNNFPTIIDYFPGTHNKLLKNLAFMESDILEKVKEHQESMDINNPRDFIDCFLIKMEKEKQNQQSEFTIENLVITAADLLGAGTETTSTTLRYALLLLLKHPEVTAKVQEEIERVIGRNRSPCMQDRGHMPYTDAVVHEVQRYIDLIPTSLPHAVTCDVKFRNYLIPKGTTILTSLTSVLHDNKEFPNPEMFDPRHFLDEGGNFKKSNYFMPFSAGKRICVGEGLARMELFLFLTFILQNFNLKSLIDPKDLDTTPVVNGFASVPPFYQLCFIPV
CYP1A2, sequence (P05177 whole entry): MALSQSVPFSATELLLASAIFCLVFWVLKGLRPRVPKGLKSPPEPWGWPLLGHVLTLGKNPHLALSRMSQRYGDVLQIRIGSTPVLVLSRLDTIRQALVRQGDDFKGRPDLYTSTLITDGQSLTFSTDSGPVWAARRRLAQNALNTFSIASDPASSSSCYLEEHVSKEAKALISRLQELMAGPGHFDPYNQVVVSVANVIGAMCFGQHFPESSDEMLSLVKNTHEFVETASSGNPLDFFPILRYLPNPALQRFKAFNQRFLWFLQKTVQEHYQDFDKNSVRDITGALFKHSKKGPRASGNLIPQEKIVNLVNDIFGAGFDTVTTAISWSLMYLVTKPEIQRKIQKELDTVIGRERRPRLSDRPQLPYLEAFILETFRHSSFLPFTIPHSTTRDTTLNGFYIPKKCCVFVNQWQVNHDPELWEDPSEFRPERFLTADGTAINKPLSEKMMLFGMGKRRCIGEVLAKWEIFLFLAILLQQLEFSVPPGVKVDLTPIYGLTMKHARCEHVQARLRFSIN
CYP2C9, sequence (P11712 whole entry): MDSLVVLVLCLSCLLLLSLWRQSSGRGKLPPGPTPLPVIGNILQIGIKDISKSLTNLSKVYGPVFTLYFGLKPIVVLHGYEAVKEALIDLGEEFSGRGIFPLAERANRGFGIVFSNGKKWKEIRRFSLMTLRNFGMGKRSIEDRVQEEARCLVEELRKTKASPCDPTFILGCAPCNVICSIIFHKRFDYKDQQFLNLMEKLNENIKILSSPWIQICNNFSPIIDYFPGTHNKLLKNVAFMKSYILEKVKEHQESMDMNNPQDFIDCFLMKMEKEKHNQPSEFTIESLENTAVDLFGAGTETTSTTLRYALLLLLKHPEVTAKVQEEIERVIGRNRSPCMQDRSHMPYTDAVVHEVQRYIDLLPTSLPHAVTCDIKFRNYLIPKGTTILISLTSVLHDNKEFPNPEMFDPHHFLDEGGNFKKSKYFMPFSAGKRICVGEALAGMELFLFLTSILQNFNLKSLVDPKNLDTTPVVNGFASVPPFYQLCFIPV
CYP3A4(BQ), sequence (P08684 whole entry): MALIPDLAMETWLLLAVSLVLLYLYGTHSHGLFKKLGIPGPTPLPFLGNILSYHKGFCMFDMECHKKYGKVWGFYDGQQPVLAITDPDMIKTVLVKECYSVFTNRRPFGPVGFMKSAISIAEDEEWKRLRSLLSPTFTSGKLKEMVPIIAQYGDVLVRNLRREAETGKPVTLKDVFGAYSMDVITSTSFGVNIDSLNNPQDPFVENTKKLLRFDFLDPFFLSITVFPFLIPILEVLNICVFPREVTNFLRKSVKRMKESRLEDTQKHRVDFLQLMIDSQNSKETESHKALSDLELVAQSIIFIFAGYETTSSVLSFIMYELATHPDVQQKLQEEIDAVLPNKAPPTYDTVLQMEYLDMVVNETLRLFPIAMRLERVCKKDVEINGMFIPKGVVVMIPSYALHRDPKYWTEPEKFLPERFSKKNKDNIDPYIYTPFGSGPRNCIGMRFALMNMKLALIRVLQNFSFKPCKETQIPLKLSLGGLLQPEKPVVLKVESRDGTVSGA
CYP3A4(BFC), sequence (P08684 whole entry): as above

What is called IC50 is the point on the concentration scale where inhibition reaches its midpoint. Take `CCCS(=O)(=O)Nc1ccc(F)c(C(=O)c2c[nH]c3ncnc(Nc4ccc(OC)cc4F)c23)c1F` [P-1101, Propane-1-sulfonic acid {2,4-difluoro-3-[4-(2-fluoro-4-methoxy-phenylamino)-7H-pyrrolo[2,3-d]pyrimidine-5-carbonyl]-phenyl}-amide]: the IC50 is above 10 µM against CYP1A2 (human, 15 min); above 10 µM on CYP3A4(BFC); above 10 µM at CYP2C19; above 10 µM on CYP2C9; above 10 µM on CYP3A4(BQ); above 10 µM at CYP2D6. Also, in data set [1], the “turbidity threshold (L, M, H) 1.4” value is recorded as “L (low solubility if the threshold concentration is <31.3 μM)”. The “turbidity threshold (L, M, H) 4.5” value in data set [1] was “L (low solubility if the threshold concentration is <31.3 μM)”. In addition, the “turbidity threshold (L, M, H) 6.8” value in data set [1] is “L (low solubility if the threshold concentration is <31.3 μM)”. For the same compound, in data set [1], the “turbidity threshold (L, M, H) 7.4” value is given as “L (low solubility if the threshold concentration is <31.3 μM)”.

For the compound `CC(C)Nc1ncnc2[nH]cc(C(=O)c3c(F)ccc(NS(=O)(=O)c4ccccc4F)c3F)c12` [P-1073, N-[2,4-Difluoro-3-(4-isopropylamino-7H-pyrrolo[2,3-d]pyrimidine-5-carbonyl)-phenyl]-2-fluoro-benzenesulfonamide], the IC50 at CYP1A2 (setting [2]), at CYP3A4(BFC), on CYP2C19, on CYP2C9, at CYP3A4(BQ) and at CYP2D6 was above 10 µM in each case. Also, the “turbidity threshold (L, M, H) 1.4” value in data set [1] is recorded as “M (moderate solubility if the threshold concentration is 31.3 μM to 250 μM)”. For the same compound, the “turbidity threshold (L, M, H) 4.5” value in data set [1] was “L (low solubility if the threshold concentration is <31.3 μM)”. Also, in data set [1], the “turbidity threshold (L, M, H) 6.8” value is given as “L (low solubility if the threshold concentration is <31.3 μM)”. For the same compound, the “turbidity threshold (L, M, H) 7.4” value in data set [1] was “L (low solubility if the threshold concentration is <31.3 μM)”.

Consider `CCCS(=O)(=O)Nc1ccc(F)c(C(=O)c2c[nH]c3ncnc(NC4CCCC4)c23)c1F` [P-1081, Propane-1-sulfonic acid [3-(4-cyclopentylamino-7H-pyrrolo[2,3-d]pyrimidine-5-carbonyl)-2,4-difluoro-phenyl]-amide], for which the IC50 against CYP1A2 (human, 15 min) was above 10 µM; at CYP3A4(BFC) it was above 10 µM; on CYP2C19, above 10 µM; on CYP2C9, above 10 µM; at CYP3A4(BQ) it was above 10 µM; at CYP2D6, above 10 µM. The “turbidity threshold (L, M, H) 1.4” value in data set [1] is given as “H (high solubility if the threshold concentration is >250 μm)”. Besides, the “turbidity threshold (L, M, H) 4.5” value in data set [1] was “L (low solubility if the threshold concentration is <31.3 μM)”. In addition, the “turbidity threshold (L, M, H) 6.8” value in data set [1] is given as “L (low solubility if the threshold concentration is <31.3 μM)”. In data set [1], the “turbidity threshold (L, M, H) 7.4” value was “L (low solubility if the threshold concentration is <31.3 μM)”.

`CCCS(=O)(=O)Nc1ccc(F)c(C(=O)c2c[nH]c3ncnc(Nc4cn(C)nc4C)c23)c1F` [P-1100, Propane-1-sulfonic acid {3-[4-(1,3-dimethyl-1H-pyrazol-4-ylamino)-7H-pyrrolo[2,3-d]pyrimidine-5-carbonyl]-2,4-difluoro-phenyl}-amide]: the half-inhibitory concentration (IC50) at CYP1A2 (setting [2]), at CYP3A4(BFC), at CYP2C19, at CYP2C9, at CYP3A4(BQ) and on CYP2D6 was above 10 µM in each case. Besides, the “turbidity threshold (L, M, H) 1.4” value in data set [1] was “M (moderate solubility if the threshold concentration is 31.3 μM to 250 μM)”. In data set [1], the “turbidity threshold (L, M, H) 4.5” value is given as “M (moderate solubility if the threshold concentration is 31.3 μM to 250 μM)”. The “turbidity threshold (L, M, H) 6.8” value in data set [1] is listed as “L (low solubility if the threshold concentration is <31.3 μM)”. Also, the “turbidity threshold (L, M, H) 7.4” value in data set [1] is “L (low solubility if the threshold concentration is <31.3 μM)”.

`O=C(c1c(F)ccc(NS(=O)(=O)c2cc(F)ccc2F)c1F)c1c[nH]c2ncnc(C3CC3)c12` [P-1107, N-[3-(4-Cyclopropyl-7H-pyrrolo[2,3-d]pyrimidine-5-carbonyl)-2,4-difluoro-phenyl]-2,5-difluoro-benzenesulfonamide]: the IC50 is 5 to 10 µM against CYP1A2; above 10 µM on CYP3A4(BFC); above 10 µM on CYP2C19; above 10 µM at CYP2C9; above 10 µM on CYP3A4(BQ); above 10 µM on CYP2D6. Also, the “turbidity threshold (L, M, H) 1.4” value in data set [1] is on record as “M (moderate solubility if the threshold concentration is 31.3 μM to 250 μM)”. Also, the “turbidity threshold (L, M, H) 4.5” value in data set [1] is “L (low solubility if the threshold concentration is <31.3 μM)”. Also, the “turbidity threshold (L, M, H) 6.8” value in data set [1] is listed as “M (moderate solubility if the threshold concentration is 31.3 μM to 250 μM)”. In addition, the “turbidity threshold (L, M, H) 7.4” value in data set [1] is listed as “M (moderate solubility if the threshold concentration is 31.3 μM to 250 μM)”.

As for `O=C(c1c(F)ccc(NS(=O)(=O)c2cc(F)ccc2F)c1F)c1c[nH]c2ncnc(NC3CC3)c12` [P-1104, N-[3-(4-Cyclopropylamino-7H-pyrrolo[2,3-d]pyrimidine-5-carbonyl)-2,4-difluoro-phenyl]-2,5-difluoro-benzenesulfonamide], the half-maximal inhibitory concentration (IC50) against CYP1A2 (human, 15 min) is above 10 µM; at CYP3A4(BFC), above 10 µM; on CYP2C19, above 10 µM; at CYP2C9 it was above 10 µM; on CYP3A4(BQ) it was above 10 µM; at CYP2D6 it was above 10 µM. Besides, the “turbidity threshold (L, M, H) 1.4” value in data set [1] is “H (high solubility if the threshold concentration is >250 μm)”. Further, the “turbidity threshold (L, M, H) 4.5” value in data set [1] is “M (moderate solubility if the threshold concentration is 31.3 μM to 250 μM)”. In addition, the “turbidity threshold (L, M, H) 6.8” value in data set [1] is “M (moderate solubility if the threshold concentration is 31.3 μM to 250 μM)”. The “turbidity threshold (L, M, H) 7.4” value in data set [1] is listed as “M (moderate solubility if the threshold concentration is 31.3 μM to 250 μM)”.

On to `CCCS(=O)(=O)Nc1ccc(F)c(C(=O)c2c[nH]c3ncnc(Nc4ccccn4)c23)c1F` [P-1077, Propane-1-sulfonic acid {2,4-difluoro-3-[4-(pyridin-2-ylamino)-7H-pyrrolo[2,3-d]pyrimidine-5-carbonyl]-phenyl}-amide], for which the IC50 against CYP1A2 (human, 15 min) was above 10 µM; at CYP3A4(BFC), above 10 µM; on CYP2C19 it was above 10 µM; at CYP2C9, above 10 µM; at CYP3A4(BQ), above 10 µM; at CYP2D6, above 10 µM. Moreover, the “turbidity threshold (L, M, H) 1.4” value in data set [1] is “H (high solubility if the threshold concentration is >250 μm)”. In data set [1], the “turbidity threshold (L, M, H) 4.5” value is “L (low solubility if the threshold concentration is <31.3 μM)”. Besides, the “turbidity threshold (L, M, H) 6.8” value in data set [1] is “L (low solubility if the threshold concentration is <31.3 μM)”. In addition, the “turbidity threshold (L, M, H) 7.4” value in data set [1] is reported as “L (low solubility if the threshold concentration is <31.3 μM)”.

For `CCCS(=O)(=O)Nc1ccc(F)c(C(=O)c2c[nH]c3ncnc(Nc4ccc(OC)nc4)c23)c1F` [P-1090, Propane-1-sulfonic acid {2,4-difluoro-3-[4-(6-methoxy-pyridin-3-ylamino)-7H-pyrrolo[2,3-d]pyrimidine-5-carbonyl]-phenyl}-amide], the IC50 was above 10 µM on CYP1A2 (human, 15 min); above 10 µM at CYP3A4(BFC); above 10 µM at CYP2C19; above 10 µM at CYP2C9; above 10 µM at CYP3A4(BQ); above 10 µM on CYP2D6.

On to `CCCS(=O)(=O)Nc1ccc(F)c(C(=O)c2c[nH]c3ncnc(NCC4CC4)c23)c1F` [P-1079, Propane-1-sulfonic acid {3-[4-(cyclopropylmethyl-amino)-7H-pyrrolo[2,3-d]pyrimidine-5-carbonyl]-2,4-difluoro-phenyl}-amide], for which the IC50 was above 10 µM on CYP1A2 (human, 15 min); above 10 µM on CYP3A4(BFC); above 10 µM on CYP2C19; above 10 µM at CYP2C9; above 10 µM at CYP3A4(BQ); above 10 µM on CYP2D6. The “turbidity threshold (L, M, H) 1.4” value in data set [1] was “M (moderate solubility if the threshold concentration is 31.3 μM to 250 μM)”. Further, in data set [1], the “turbidity threshold (L, M, H) 4.5” value is reported as “L (low solubility if the threshold concentration is <31.3 μM)”. In addition, the “turbidity threshold (L, M, H) 6.8” value in data set [1] is reported as “L (low solubility if the threshold concentration is <31.3 μM)”. Moreover, the “turbidity threshold (L, M, H) 7.4” value in data set [1] is listed as “L (low solubility if the threshold concentration is <31.3 μM)”.
